# Assay results published in patent publication US7943338B2, “Autoimmune conditions and NADPH oxidase defects” (Arexis AB, priority 2002, dated 2011).
# “Also recorded” adds a separate entry of the source.
# Columns and labels:
# [1] = system: NADPH complex; experiment: Oxygen burst studies, activation of NADPH complex (cell type not stated); type: cell-based; settings: oxygen burst studies / WST-1 assay
# Protocol: (§1) The unsaturated fatty acids C14:1-C24:1 (myristoleic acid, palmitoleic acid, oleic acid, linoleic acid, linolenic acid, 11c-eicosenoic acid, arachidonic acid, erucic acid, and neuronic acid) and squalenee (Sigma) were also tested.
# (§2) 10 μL of each of the oils to be tested was added with 9 μL of WST1 to the wells of a 96 well microtitre plate. 10^6 cells/mL (100 μL of 10^7 cells/mL) were added to each well and the color change measured in a spectrophotometer at 450 nm at 37° for 60 minutes (one measurement/min).
# 10 μL each of the oils to be tested were added to the wells of a 96 well microtitre plate. 50 μL of cytochrome C (4 mg/mL) and […] (50 μL of 10^7 cells/mL) were added to each well and the absorbance measured in a spectrophotometer at 550 nm at 37° C. for 60 minutes (one measurement/minute).
# [2] = system: DA rats; experiment: Arthritis-inducing effect of oils injected intradermally at the base of the tail; type: in vivo, Rat (Rattus norvegicus); settings: oil injected intradermally at base of tail, scored days 12-31, FIG. 10
# Text: The arthritis-inducing effects of the oils was examined by injecting the oils intradermally into DA rats. […] Note that p<0.05 for alkanes shorter than C15 compared to C19. All statistics evaluated with student's t-test. N=4 for all groups.
# [3] = system: NADPH complex; experiment: Oxidative burst WST-1 assay, E3 rat peritoneal cells; type: cell-based; settings: peritoneal cells from E3 rat after thioglycolate; FIG. 9A
# Protocol: as §1, with “tested. The oils were solubilized by dilution in cyclodextrin (100 mM in PBS).” for “tested.”
# 5 mL thioglycolate (2.4%) was injected intraperitoneally in E3 rats to elicit recruitment of neutrophils 16 hours before sacrifice. 40 mL PBS+hepes (1%) was injected into the peritoneum and the cell suspension extracted. Red blood cells were lysed with 0.84% NH4Cl, and WBC were washed in PBS and resuspended in PBS at a concentration of about 10^7 cells/mL.
# as §2
# [4] = target: T1, NADPH complex (Homo sapiens, UniProt P14598); experiment: Oxidative burst WST-1 assay, HL60 cells; type: cell-based; settings: FIG. 9B
# T1 construct: endogenous in cells; host or cells: HL60 cells differentiated with 1.25% DMSO
# T1 sequence (P14598 1-390): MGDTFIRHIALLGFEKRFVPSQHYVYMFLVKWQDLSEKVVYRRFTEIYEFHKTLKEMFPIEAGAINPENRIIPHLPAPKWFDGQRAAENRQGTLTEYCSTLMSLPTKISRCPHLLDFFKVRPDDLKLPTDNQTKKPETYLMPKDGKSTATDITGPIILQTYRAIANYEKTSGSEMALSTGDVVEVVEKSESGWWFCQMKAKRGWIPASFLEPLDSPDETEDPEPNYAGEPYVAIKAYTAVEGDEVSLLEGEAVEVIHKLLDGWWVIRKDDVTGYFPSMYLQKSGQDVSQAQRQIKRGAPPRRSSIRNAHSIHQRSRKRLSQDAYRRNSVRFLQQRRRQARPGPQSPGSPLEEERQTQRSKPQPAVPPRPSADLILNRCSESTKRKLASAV
# Protocol: The unsaturated fatty acids C14:1-C24:1 (myristoleic acid, palmitoleic acid, oleic acid, linoleic acid, linolenic acid, 11c-eicosenoic acid, arachidonic acid, erucic acid, and neuronic acid) and squalenee (Sigma) were also tested. The oils were solubilized by dilution in cyclodextrin (100 mM in PBS). Human […] cell line HL60 was cultured in Dulbeccos complete medium with Hepes, 10% Fetal calf serum, and Penicillin-Streptomycin. HL60 cells differentiated to neutrophil-macrophages six days after addition of 1.25% DMSO. The cells were spun down at 1200 rpm for 5 minutes and then washed with PBS twice. The cells were then resuspended in PBS to a concentration of about 10^7 cells/mL. 10 μL of each of the oils to be tested was added with 9 μL of WST1 to the wells of a 96 well microtitre plate. 10^6 cells/mL (100 μL of 10^7 cells/mL) were added to each well and the color change measured in a spectrophotometer at 450 nm at 37° for 60 minutes (one measurement/min).
# [5] = system: DA rats; experiment: Treatment/prevention of pristane-induced arthritis with undecane; type: in vivo, Rat (Rattus norvegicus)
# Protocol: Groups of DA rats were injected intradermally at the base of the tail with 200 μL of the oils as indicated below: • Undecane day −10, […] day 0; • Olive oil day −10, […] day 0; • Undecane day −5, […] day 0; • Undecanol day −5, […] day 0; Olive oil day −5, […] day 0; • Undecane day 5, […] day 0; and • Olive oil day 5, […] day 0.
# The rats were scored every other day starting at day 11 according to the extended scoring system where every red or swollen toe or mid foot scored one point, and a red and swollen ankle scored five points, yielding a total of 15 points/limb and 60 points/rat. Olive oil and undecanol were used as controls.
# [6] = system: DA rats; experiment: Treatment of active PIA with phytol or undecane; type: in vivo, Rat (Rattus norvegicus); settings: 200 μL i.p. or i.d. at day 21 and day 26; FIG. 23
# Protocol: Groups of DA rats were injected with […] at day 0. The […] (150 μL) was injected intra-dermal at the base of the tail. The rats were scored from day 9 using the extended scoring system (see above). Then, the rats were treated at day 21 and at day 26 with one of the following alternatives: (1) 200 μL phytol intra-peritoneal; (2) 200 μL phytol intra-dermal at the base of the tail; (3) 200 μL undecane intra-peritoneal; (4) 200 μL undecane intra-dermal at the base of the tail; or (5) control untreated.
# [7] = system: DA and DA.E3chr12 rats; settings: PIA
# Protocol: Arthritic development was monitored in all limbs using a macroscopic scoring system. Briefly, 1 point was given for each swollen or red toe, 1 point for each swollen midfoot, digit, or knuckle, and 5 points for a swollen ankle. The maximum score for a limb was 15 points, and the maximum score for a rat was 60 points.
# For administration, 50 mg of DPI was dissolved in 250 mL DMSO/PBS. About 0.5 mL was injected intraperitoneally into rats on day 0, 2, 3, 4, 5, 6, 7, 8, 10, 12, 14, 17, 19, and 21.
# Arthritis development was monitored in all limbs.
# [8] = system: mice; settings: daily intraperitoneal 2.8 μmol/kg (880 μg/kg); cited from earlier work
# [9] = In vivo distribution of 14C-labeled oils; design: species or system Rat (Rattus norvegicus); settings: for arthritis in rats treated with radioactively-labeled oils: 200 μL i.d. at base of tail, DA rats, FIG. 13; for extent of distribution to the lymph nodes: hexadecane compared with oleic acid
# Protocol: [1-14C]-Hexadecane and [1-14C]-Oleic acid were purchased from Amersham. The oils were injected intradermally at the base of the tail in 18 DA rats (200 μL). At day 10, the organs (lymph nodes, spleen, liver and kidney) of three rats from each group were collected. The organs were weighed and homogenized in a total volume of 2 mL PBS and frozen. The same procedure was followed at day 20 and at day 30. 1 mL of the homogenised samples was then added to 10 mL Ready Safe (Beckman) and counted in a beta counter. The distribution of radioactive labelled hexadecane to the lymph nodes was also inspected at earlier time points (day 3, day 6, day 10, and day 13).
# [10] = system: DA rats; experiment: Treatment of experimental allergic encephalomyelitis (EAE) with phytol; type: in vivo, Rat (Rattus norvegicus); settings: 200 μL phytol at day -10 and day +5; olive oil control; p<0.05; FIG. 16
# Protocol: Groups of DA rats were injected at the base of the tail with 200 μL phytol at day -10, day -5, and day +5. Olive oil was used as a control. At day 0, all rats were treated (immunized) with 200 μL SCH (DA spinal cord homogenate, to induce EAE) i.d. at the base of the tail. The rats were then scored according to the following scale for 40 days: • 0=Normal • 1=Tail weakness • 2=Tail paralysis • 3=Tail paralysis and mild […] • 4=Tail paralysis and severe […] • 5=Tail paralysis and paralysis of one limb • 6=Tail paralysis and paralysis of a pair of limbs • 7=Tetra-paresis • 8=Pre-morbid or dead.
# [11] = system: DA rats; experiment: Route of administration of phytol in treatment of PIA; type: in vivo, Rat (Rattus norvegicus); settings: FIG. 17
# Protocol: Groups of DA rats were treated with phytol according to one of the following treatment regimens at day −5 and at day +5. All rats were injected with […] (200 μL) at day 0 intradermally at the base of the tail. Phytol was administered to groups of rats as follows: • 25 μL phytol intranasally (i.n.); • 200 μL phytol intraperitoneally (i.p.); • 200 μL phytol intradermally at the base of the tail (i.d.); and • 1 mL phytol per os (p.o.).
# The rats were scored from day 9 using the extended scoring system (as discussed previously).
# [12] = system: DA rats; experiment: Collagen induced arthritis (CIA) in rats treated with phytol; type: in vivo, Rat (Rattus norvegicus); settings: FIG. 22
# Protocol: DA rats were treated according to one of the following alternatives: (1) 200 μL phytol intra-dermal at the base of the tail at day −10; (2) 200 μL phytol intra-dermal at the base of the tail at day −5; (3) 200 μL phytol intra-peritoneal at day −5 and day +5; or (4) control untreated. CIA was induced in all animals at day 0 by injecting […] of collagen II dissolved in 75 μL 0.1 M Acetic acid and emulsified in 75 μL IFA. The rats were scored from day 10 using the extended scoring system (see above).
# [13] = in vivo; cited from earlier work
# [14] = system: DA rats; experiment: Treatment of hexadecane-induced arthritis with hexadecene; type: in vivo, Rat (Rattus norvegicus); settings: rat, in vivo
# Protocol: Groups of DA rats were injected i.d. at the base of the tail as follows: • Hexadecane 200 μL day 0; • Hexadecene 200 μL day 0; • Hexadecene 200 μL day −5, Hexadecane 200 μL day 0; • Olive oil 200 μL day −5, Hexadecane 200 μL day 0; • Hexadecene 200 μL day +5, Hexadecane 200 μL day 0; and • Olive oil day 200 μL +5, Hexadecane 200 μL day 0.
# The rats were scored as indicated above. Olive oil was used as a control.
# [15] = in vivo; cited from earlier work; remark: listed apart in the source
structure (smiles),measurement,setting,value
CCCCCCCCCCCCCCCCCC [octadecane],activation of the NADPH complex,[1],activate the NADPH complex
same,arthritis induction,[2],induce arthritis
CCCCCCCCCCC [undecane],activation of the oxidative burst (WST-1 assay),[3],potent activator
same,activation of the oxidative burst (WST-1 assay),[4],potent activator
same,activation of the NADPH complex,[1],activated the NADPH complex
same,arthritis induction,[2],did not induce arthritis
same,"additive score and maximum score of PIA, undecane vs olive oil","[5]; 200 μL i.d. day -5, pristane day 0, p<0.05, FIG. 11B, 11C",significant difference
same,"additive score and maximum score of PIA, undecane vs undecanol","[5]; 200 μL i.d. day -5, pristane day 0, p=0.05 additive, p<0.05 maximum",significant difference
same,"arthritis score / preventive effect, undecane day +5 compared with day -10 or day -5","[5]; 200 μL i.d., pristane day 0",slightly higher score; also recorded: did not show as significant a preventive effect as at day −10 or at day −5
same,effect on active arthritis in PIA rat model,[6],effective against active arthritis
"CCCCCCCCCCCCCCC [Pentadecane, pentadecane]",activation of the NADPH complex,[1],did not activate the NADPH complex
same,arthritis induction,[2],did induce arthritis
"c1ccc2c(c1)[I+]c1ccccc1-2 [DPI, diphenyleneiodonium chloride]",severity of arthritis,"[7]; DPI 1.25 μmol/kg i.p. on days 0-21, FIG. 6",increased severity of arthritis
same,accumulated arthritis scores,"[7]; DPI-treated vs control rats, FIG. 7",greater accumulated arthritis scores than control rats
same,reduction of arthritis,[8],50%
CCCCCCCC/C=C\CCCCCCCC(=O)O [oleic acid],arthritis in rats treated with radioactively-labeled oils,[9],does not induce arthritis
same,extent of distribution to the lymph nodes,[9],not distributed to the lymph nodes to as high an extent as the hexadecane
C/C(=C\CO)CCC[C@H](C)CCC[C@H](C)CCCC(C)C [phytol],"additive score and maximum score of EAE, phytol vs control rats",[10],significant difference
same,effect on PIA,[11]; 25 μL phytol i.n. day -5 and day +5,ameliorative and preventive effects
same,effect on PIA,[11]; 200 μL phytol i.d. day -5 and day +5,ameliorating and preventive effect
same,effect on PIA,[11]; 200 μL phytol i.p. day -5 and day +5,ameliorative and preventive effects
same,development of arthritis in CIA rat model,[12]; 200 μL phytol intra-dermal day -10 or day -5,prevented development of arthritis
same,development of arthritis in CIA rat model,[12]; 200 μL phytol intra-peritoneal day -5 and day +5,prevented development of arthritis
same,effect on active arthritis in PIA rat model,[6],effective against active arthritis
same,arthritis induction,[13],do not
CCCCCCCCCCCCCCCC [hexadecane],activation of the NADPH complex,[1],activated the complex
same,arthritis induction,[2],induced arthritis
same,arthritis-inducing capacity,[14],induces arthritis
same,arthritis in rats treated with radioactively-labeled oils,[9],only the rats injected with hexadecane had arthritis
same,time of maximum accumulation in the lymph nodes,[9]; FIG. 15,10 days
same,time course of accumulation in the lymph nodes,"[9]; days 3, 6, 10, 13 and later, FIG. 15",increase in the accumulation of hexadecane in the lymph nodes until day 10; also recorded: slowly decreased
same,extent of distribution to the lymph nodes,[9],higher extent than oleic acid
same,distribution of 14C-labeled hexadecane,[15],disseminated predominantly to the lymph nodes
same,arthritis induction,[13],induce arthritis
CCCCCCCCCCCCCCCCC [heptadecane],activation of the NADPH complex,[1],activate the NADPH complex
same,arthritis induction,[2],induce arthritis
